According to ChEMBL document CHEMBL5696442, “Discovery of type II inhibitors of TGFβ-activated kinase 1 (TAK1) and mitogen-activated protein kinase kinase kinase kinase 2 (MAP4K2)” (J Med Chem, 2015):
Active and inactive are the calls of the source. No cut-off for these calls is given here.

Key:
[1] = biological target: Serine/threonine-protein kinase 4 (Homo sapiens) (UniProt Q13043); experiment: Inhibition of MST1 Lys1 labeling site harbouring AIHKETGQIVAIKQVPVESDLQEIIK in human Huh-7 cells at 1 uM by KiNativ Profiling analysis relative to control
[2] = biological target: Rho-associated protein kinase 2 (Homo sapiens) (UniProt O75116); experiment: Inhibition of ROCK2 Lys2 labeling site in human Huh-7 cell lysate at 1 uM by KiNativ Profiling analysis relative to control; assay type: subcellular
[3] = biological target: Ribosomal protein S6 kinase alpha-4 (Homo sapiens) (UniProt O75676); experiment: Inhibition of MSK2 domain1 ATP labeling site in human Huh-7 cell lysate at 1 uM by KiNativ Profiling analysis relative to control; assay type: subcellular
[4] = biological target: Cyclin-dependent kinase 7 (Homo sapiens) (UniProt P50613); experiment: Inhibition of CDK7 Lys2 labeling site in human Huh-7 cells at 1 uM by KiNativ Profiling analysis relative to control; assay type: cell-based
Sequence of Cyclin-dependent kinase 7 (Homo sapiens) (P50613 whole entry): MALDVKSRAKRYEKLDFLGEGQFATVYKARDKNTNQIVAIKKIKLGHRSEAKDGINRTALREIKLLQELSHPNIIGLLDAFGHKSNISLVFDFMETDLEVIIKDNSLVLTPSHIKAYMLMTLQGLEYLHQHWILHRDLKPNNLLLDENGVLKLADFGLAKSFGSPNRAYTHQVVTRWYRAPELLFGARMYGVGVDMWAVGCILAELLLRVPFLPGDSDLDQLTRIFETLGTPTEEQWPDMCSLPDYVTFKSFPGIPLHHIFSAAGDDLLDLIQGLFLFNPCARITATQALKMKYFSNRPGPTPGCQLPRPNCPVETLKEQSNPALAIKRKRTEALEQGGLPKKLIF

[5] = biological target: Ribosomal protein S6 kinase beta-2 (Homo sapiens) (UniProt Q9UBS0); experiment: Inhibition of p70S6Kb ATP labeling site in human Huh-7 cell lysate at 1 uM by KiNativ Profiling analysis relative to control; assay type: subcellular
[6] = biological target: Cyclin-dependent kinase 9 (Homo sapiens) (UniProt P50750); experiment: Inhibition of CDK9 Lys2 labeling site in human Huh-7 cell lysate at 1 uM by KiNativ Profiling analysis relative to control; assay type: subcellular
[7] = biological target: cAMP-dependent protein kinase catalytic subunit PRKX (Homo sapiens) (UniProt P51817); experiment: Inhibition of PRKX (unknown origin) at 10 uM by Ambit Kinomescan binding assay
[8] = biological target: Tyrosine-protein kinase Yes (Homo sapiens) (UniProt P07947); experiment: Inhibition of YES ACT labeling site in human Huh-7 cells at 1 uM by KiNativ Profiling analysis relative to control; assay type: cell-based
[9] = biological target: Bone morphogenetic protein receptor type-2 (Homo sapiens) (UniProt Q13873); experiment: Inhibition of BMPR2 (unknown origin) at 10 uM by Ambit Kinomescan binding assay
[10] = biological target: Tyrosine-protein kinase BTK (Homo sapiens) (UniProt Q06187); experiment: Inhibition of BTK (unknown origin) at 10 uM by Ambit Kinomescan binding assay
Sequence of Tyrosine-protein kinase BTK (Homo sapiens) (Q06187 whole entry): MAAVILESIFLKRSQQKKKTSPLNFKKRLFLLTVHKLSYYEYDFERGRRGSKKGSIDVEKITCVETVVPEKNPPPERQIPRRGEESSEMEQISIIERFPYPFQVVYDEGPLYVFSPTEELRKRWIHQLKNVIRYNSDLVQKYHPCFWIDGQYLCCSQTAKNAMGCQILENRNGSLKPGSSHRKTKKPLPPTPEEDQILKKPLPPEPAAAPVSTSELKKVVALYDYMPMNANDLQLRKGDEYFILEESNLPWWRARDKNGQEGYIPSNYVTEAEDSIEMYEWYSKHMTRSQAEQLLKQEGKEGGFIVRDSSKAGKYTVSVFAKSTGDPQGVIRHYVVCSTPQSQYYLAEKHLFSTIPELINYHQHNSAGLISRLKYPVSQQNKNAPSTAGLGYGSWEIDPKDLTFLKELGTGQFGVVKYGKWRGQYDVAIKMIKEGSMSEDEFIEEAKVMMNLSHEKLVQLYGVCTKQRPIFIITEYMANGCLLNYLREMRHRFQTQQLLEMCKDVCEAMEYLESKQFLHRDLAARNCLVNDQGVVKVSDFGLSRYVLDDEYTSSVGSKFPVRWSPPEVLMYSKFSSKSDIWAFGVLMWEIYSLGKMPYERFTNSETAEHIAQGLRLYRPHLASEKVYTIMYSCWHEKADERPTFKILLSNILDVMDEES

[11] = biological target: T1, Dual specificity mitogen-activated protein kinase kinase 6 (Homo sapiens) (UniProt P52564); experiment: Inhibition of MAP2K6 K1 labeling site in human Huh-7 cells at 10 uM by KiNativ Profiling analysis relative to control; assay type: cell-based
T1 sequence (whole entry): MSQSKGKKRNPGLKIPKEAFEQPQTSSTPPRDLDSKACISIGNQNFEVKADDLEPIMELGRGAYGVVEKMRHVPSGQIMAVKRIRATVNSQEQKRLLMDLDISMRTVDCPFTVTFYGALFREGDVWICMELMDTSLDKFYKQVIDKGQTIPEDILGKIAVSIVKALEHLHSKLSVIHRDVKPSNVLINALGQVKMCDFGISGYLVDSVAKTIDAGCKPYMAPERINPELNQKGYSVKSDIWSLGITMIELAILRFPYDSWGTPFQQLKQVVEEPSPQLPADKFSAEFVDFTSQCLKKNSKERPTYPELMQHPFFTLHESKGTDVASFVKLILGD

[12] = biological target: T2, Phosphatidylinositol 5-phosphate 4-kinase type-2 gamma (Homo sapiens) (UniProt Q8TBX8); experiment: Inhibition of PIP4K2C ATP labeling site harbouring TLVIKEVSSEDIADMHSNLSNYHQYIVK in human A-375 cells at 0.05 uM by KiNativ Profiling analysis relative to control; assay type: cell-based
T2 sequence (whole entry): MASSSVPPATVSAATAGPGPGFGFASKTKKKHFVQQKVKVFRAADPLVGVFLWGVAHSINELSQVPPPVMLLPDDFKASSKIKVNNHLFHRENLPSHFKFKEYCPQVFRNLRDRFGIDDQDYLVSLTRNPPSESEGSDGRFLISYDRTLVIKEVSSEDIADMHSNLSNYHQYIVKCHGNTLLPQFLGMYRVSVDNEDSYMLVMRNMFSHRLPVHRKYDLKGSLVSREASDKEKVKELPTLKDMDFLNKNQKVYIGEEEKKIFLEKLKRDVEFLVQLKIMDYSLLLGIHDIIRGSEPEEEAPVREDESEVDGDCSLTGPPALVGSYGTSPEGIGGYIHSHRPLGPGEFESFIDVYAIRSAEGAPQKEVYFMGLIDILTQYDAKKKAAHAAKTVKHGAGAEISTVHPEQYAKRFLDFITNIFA

[13] = biological target: Epidermal growth factor receptor (Homo sapiens) (UniProt P00533); experiment: Inhibition of EGFR ACT labeling site harbouring ITDFGLAKLLGAEEK in human A-375 cells at 0.5 uM by KiNativ Profiling analysis relative to control; assay type: cell-based
[14] = biological target: Ephrin type-A receptor 8 (Homo sapiens) (UniProt P29322); experiment: Inhibition of EPHA8 (unknown origin) at 10 uM by Ambit Kinomescan binding assay relative to control
Sequence of Ephrin type-A receptor 8 (Homo sapiens) (P29322 whole entry): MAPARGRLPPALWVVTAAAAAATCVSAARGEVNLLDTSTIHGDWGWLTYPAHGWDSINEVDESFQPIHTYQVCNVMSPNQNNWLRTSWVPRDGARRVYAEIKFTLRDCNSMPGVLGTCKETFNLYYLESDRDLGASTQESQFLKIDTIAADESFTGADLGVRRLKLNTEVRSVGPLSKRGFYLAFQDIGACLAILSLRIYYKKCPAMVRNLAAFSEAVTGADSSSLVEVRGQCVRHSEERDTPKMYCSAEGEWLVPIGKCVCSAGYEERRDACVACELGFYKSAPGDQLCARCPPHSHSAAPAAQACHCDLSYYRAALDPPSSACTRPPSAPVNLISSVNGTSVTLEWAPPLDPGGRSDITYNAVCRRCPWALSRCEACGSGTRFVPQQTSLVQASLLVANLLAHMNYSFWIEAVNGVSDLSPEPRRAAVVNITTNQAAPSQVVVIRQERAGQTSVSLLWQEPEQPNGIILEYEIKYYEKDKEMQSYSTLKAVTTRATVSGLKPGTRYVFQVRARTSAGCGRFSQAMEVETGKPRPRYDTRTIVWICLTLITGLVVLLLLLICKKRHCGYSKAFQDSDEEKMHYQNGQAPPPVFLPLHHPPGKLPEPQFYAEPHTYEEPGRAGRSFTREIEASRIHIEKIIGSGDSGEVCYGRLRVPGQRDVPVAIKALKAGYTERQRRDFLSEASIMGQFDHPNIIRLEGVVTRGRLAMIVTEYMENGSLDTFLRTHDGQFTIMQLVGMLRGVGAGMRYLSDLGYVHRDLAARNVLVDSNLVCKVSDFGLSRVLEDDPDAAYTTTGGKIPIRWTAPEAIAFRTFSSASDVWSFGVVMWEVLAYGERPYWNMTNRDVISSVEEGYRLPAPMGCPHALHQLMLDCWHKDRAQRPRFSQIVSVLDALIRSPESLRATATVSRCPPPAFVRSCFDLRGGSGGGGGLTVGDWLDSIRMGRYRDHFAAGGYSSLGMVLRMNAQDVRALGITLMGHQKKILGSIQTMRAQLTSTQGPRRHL

[15] = biological target: cAMP-dependent protein kinase catalytic subunit beta (Homo sapiens) (UniProt P22694); experiment: Inhibition of PKAC beta (unknown origin) at 10 uM by Ambit Kinomescan binding assay relative to control
[16] = biological target: Casein kinase I isoform alpha-like (Homo sapiens) (UniProt Q8N752); experiment: Inhibition of CSNK1A1L (unknown origin) at 10 uM by Ambit Kinomescan binding assay
[17] = biological target: Macrophage colony-stimulating factor 1 receptor (Homo sapiens) (UniProt P07333); experiment: Inhibition of CSF1R (unknown origin) at 10 uM by Ambit Kinomescan binding assay relative to control
Sequence of Macrophage colony-stimulating factor 1 receptor (Homo sapiens) (P07333 whole entry): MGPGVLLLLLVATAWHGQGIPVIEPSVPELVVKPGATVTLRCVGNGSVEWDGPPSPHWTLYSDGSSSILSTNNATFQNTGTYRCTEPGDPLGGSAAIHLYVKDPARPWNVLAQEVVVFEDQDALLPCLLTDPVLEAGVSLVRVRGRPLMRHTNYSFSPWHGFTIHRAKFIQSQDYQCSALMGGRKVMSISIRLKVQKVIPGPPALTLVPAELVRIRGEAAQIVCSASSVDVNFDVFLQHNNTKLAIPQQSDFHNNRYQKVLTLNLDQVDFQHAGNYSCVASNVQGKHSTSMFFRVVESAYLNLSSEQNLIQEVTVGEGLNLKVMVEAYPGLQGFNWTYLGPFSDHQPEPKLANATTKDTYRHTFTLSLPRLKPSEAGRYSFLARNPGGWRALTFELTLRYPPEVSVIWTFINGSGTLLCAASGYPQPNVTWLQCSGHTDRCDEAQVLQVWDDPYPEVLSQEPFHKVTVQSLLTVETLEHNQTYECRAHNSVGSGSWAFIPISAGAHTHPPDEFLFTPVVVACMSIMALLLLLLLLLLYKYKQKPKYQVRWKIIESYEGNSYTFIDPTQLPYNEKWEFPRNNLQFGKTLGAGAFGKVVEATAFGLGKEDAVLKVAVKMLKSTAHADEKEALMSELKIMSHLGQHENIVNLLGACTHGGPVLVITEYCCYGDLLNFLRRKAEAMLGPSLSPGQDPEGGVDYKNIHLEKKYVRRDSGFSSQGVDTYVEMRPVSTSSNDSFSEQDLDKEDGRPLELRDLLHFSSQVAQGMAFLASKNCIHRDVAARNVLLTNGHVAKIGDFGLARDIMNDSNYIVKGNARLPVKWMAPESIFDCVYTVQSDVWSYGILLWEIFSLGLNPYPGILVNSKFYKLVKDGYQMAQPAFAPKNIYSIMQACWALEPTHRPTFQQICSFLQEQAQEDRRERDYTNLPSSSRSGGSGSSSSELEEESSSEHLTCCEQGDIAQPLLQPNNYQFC

[18] = biological target: Mitogen-activated protein kinase kinase kinase 1 (Homo sapiens) (UniProt Q13233); experiment: Inhibition of MAP3K1 Lys2 labeling site in human A-375 cells at 5 uM by KiNativ Profiling analysis relative to control; assay type: cell-based
Sequence of Mitogen-activated protein kinase kinase kinase 1 (Homo sapiens) (Q13233 whole entry): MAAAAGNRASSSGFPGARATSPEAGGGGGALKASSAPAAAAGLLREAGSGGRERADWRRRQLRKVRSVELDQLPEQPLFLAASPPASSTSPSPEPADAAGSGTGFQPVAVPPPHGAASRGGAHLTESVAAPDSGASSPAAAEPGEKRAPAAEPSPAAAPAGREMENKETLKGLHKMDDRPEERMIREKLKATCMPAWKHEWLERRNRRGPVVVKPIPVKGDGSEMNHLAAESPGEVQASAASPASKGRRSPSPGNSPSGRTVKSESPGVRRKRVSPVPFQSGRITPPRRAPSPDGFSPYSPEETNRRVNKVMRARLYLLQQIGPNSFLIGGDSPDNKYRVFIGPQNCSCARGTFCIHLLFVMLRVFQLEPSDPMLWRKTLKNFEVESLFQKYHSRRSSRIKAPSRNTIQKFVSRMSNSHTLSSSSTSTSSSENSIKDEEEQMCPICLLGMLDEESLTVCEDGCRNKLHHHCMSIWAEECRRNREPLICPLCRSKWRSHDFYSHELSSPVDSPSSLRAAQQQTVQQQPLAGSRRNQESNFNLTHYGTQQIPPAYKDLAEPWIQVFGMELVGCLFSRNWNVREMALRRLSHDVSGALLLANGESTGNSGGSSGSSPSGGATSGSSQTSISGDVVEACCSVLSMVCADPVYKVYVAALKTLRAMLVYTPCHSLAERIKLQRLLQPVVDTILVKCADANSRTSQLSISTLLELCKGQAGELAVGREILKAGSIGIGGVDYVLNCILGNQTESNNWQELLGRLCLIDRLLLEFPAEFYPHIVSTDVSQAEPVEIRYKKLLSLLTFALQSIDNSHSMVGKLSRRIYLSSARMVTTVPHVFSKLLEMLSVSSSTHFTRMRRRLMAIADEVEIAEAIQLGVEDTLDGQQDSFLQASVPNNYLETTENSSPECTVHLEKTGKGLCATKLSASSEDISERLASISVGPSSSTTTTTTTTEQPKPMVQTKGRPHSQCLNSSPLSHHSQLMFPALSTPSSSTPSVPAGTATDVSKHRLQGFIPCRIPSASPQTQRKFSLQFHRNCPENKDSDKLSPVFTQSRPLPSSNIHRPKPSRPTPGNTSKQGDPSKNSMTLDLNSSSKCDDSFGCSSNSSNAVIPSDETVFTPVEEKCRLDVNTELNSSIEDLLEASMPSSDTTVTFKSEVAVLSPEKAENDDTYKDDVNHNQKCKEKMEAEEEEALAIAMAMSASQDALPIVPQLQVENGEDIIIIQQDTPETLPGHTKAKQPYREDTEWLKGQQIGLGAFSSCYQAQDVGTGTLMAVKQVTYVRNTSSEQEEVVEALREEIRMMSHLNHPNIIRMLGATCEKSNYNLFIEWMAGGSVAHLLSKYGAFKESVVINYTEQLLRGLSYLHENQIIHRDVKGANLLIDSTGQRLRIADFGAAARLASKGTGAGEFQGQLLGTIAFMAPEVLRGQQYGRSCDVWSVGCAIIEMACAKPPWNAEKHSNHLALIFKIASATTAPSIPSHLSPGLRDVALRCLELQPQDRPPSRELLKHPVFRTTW

[19] = biological target: Serine/threonine-protein kinase PAK 6 (Homo sapiens) (UniProt Q9NQU5); experiment: Inhibition of PAK6 (unknown origin) at 10 uM by Ambit Kinomescan binding assay
[20] = biological target: Tyrosine-protein kinase BTK (Homo sapiens) (UniProt Q06187); experiment: Inhibition of BTK (unknown origin) at 1 uM by Ambit Kinomescan binding assay relative to control
[21] = biological target: Platelet-derived growth factor receptor alpha (Homo sapiens) (UniProt P16234); experiment: Inhibition of PDGFRA (unknown origin) at 1 uM by Ambit Kinomescan binding assay relative to control; values are per cent of control
[22] = biological target: Cyclin-dependent kinase-like 1 (Homo sapiens) (UniProt Q00532); experiment: Inhibition of CDKL1 (unknown origin) at 1 uM by Ambit Kinomescan binding assay relative to control; values are per cent of control
Sequence of Cyclin-dependent kinase-like 1 (Homo sapiens) (Q00532 whole entry): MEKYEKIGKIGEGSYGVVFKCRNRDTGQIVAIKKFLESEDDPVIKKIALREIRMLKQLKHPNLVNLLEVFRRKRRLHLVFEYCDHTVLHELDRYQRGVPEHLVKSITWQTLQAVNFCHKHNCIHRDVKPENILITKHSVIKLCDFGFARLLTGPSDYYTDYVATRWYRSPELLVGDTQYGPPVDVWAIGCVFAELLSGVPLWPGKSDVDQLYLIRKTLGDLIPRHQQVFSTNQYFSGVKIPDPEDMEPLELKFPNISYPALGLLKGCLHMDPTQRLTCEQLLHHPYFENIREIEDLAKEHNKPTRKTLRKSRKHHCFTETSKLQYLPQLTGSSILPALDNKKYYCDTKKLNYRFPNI

[23] = biological target: Mitogen-activated protein kinase kinase kinase 1 (Homo sapiens) (UniProt Q13233); experiment: Inhibition of MAP3K1 (unknown origin) at 1 uM by Ambit Kinomescan binding assay relative to control; values are per cent of control
[24] = biological target: Serine/threonine-protein kinase 10 (Homo sapiens) (UniProt O94804); experiment: Inhibition of LOK Lys2 labeling site in human A-375 cells at 5 uM by KiNativ Profiling analysis relative to control; assay type: cell-based

CNc1cc(Oc2cc(C(=O)Nc3cc(N4CCN(C)CC4)cc(C(F)(F)F)c3)ccc2C)ncn1
inhibition [1]: 9.9%
inhibition [2]: 2.7%
inhibition [3]: -8%
inhibition [4]: 2.6%
inhibition [5]: 2.8%
inhibition [6]: 11.9%

CCN1CCN(Cc2ccc(NC(=O)c3ccc(C)c(Oc4ccnc5[nH]ccc45)c3)cc2C(F)(F)F)CC1
inhibition [7]: inactive
inhibition [8]: -0.3%
inhibition [9]: inactive
inhibition [10]: inactive
inhibition [11]: 5.5%
inhibition [12]: -1.1%
inhibition [13]: 0.7%
inhibition [14]: 0.1%
inhibition [15]: 14%
inhibition [16]: inactive
inhibition [17]: 0%
inhibition [18]: 83.9%
inhibition [19]: inactive

CCN1CCN(Cc2ccc(NC(=O)c3ccc(C)c(/C=C/c4cnc5[nH]ccc5c4OC)c3)cc2C(F)(F)F)CC1
inhibition [20]: 10%
residual activity [21]: 2.6%
residual activity [22]: 100%
residual activity [23]: 100%
inhibition [24]: 77.4%
